Read-outs that look alike come from different tables or passages of the source.
Legend:
experimental tumors [1] = test: Animal tests on experimental tumors; type: in vivo; settings: in words
[2] = Stability of glycoside linkage against acid hydrolysis (Test 2); type: physicochemical; settings: for acid hydrolysis, TLC result: 61°-62° C.; for acid hydrolysis: 60° C.; for stability of glycoside linkage against hydrolysis by acid: in words, no conditions
Experimental: Daunomycin (1 mg) was dissolved in a mixture of (0.1 ml) of 0.2N*HCl-80% CH3 CN-H2 O (*the concentration of HCl being 0.2N in the whole mixture) and the solution was heated in oil bath at 61°-62° C. for 30 minutes to cause the hydrolysis. […] The reaction solution was allowed to stand at room temperature to deposit daunomycinone as red crystals.
FTDM (0.7 mg) was suspended in a mixture (0.1 ml) of 0.2N HCl-80% CH3 CN-H2 O and suspension was stirred in an oil bath at 61°-62° C. for 30 minutes.

some species of bacteria = test: Antibacterial activity; type: cell-based; settings: for antibacterial activity: in words; for antibacterial activity compared with phenol: some species of bacteria
Leukemia L-1210 cells = test: Antitumor activity on leukemia in CDF1 mice caused by Leukemia L-1210 cells (Test 1); settings: for sign of toxicity: 2.5-5 mg/kg/day, in words
Experimental: Antitumor activity on Leukemia in CDF1 mice caused by Leukemia L-1210 cells
In this test, Compounds of formula (m) were assessed in comparison with daunomycin and adriamycin on their tumor inhibitory activity against leukemia in mice Thus, CDF1 mice were intraperitoneally transplanted with cells of Leukemia L-1210 (1×10^5 cells/mouse). From 24 hours after i.p. transplantation of L-1210 cells, each compound to be tested was administered intraperitoneally for 9 consecutive days at once per day. Observation was made for 60 days where survival days of each mouse tested were recorded, and percentage increase in life-span of the treated mice, in comparison with control test wherein mice were treated only with the administration of physiological saline, was calculated as T/C %, where T is the mean survival days of the treated animals and C is the mean survival days of the untreated control animals.

Leukemia P 388 = settings: cited from earlier work
Leukemia L-1210 = settings: 25 mg/kg, single dose per day, intraperitoneally for 9 days; cited from earlier work
[3] = system: Micrococcus luteus ATCC 9341; test: MIC by standard serial dilution method; type: cell-based; settings: ATCC9341; Micrococcus luteus ATCC 9341 (MS-1)
Source text: (§1) Minimum inhibitory concentrations (MIC., mcg/ml) of the new compounds of formulae (h) and (i) against the growth of some species of bacteria have been determined according to a standard serial dilution method.

[4] = system: Salmonella paratyphi 1015; test: MIC by standard serial dilution method; type: cell-based; settings: Salmonella enterica
Source text: as §1

[5] = patients; cited from earlier work
experimental tumors [6] = settings: various kinds of tumors; cited from earlier work
[7] = system: Corynebacterium bovis 1810; test: MIC by standard serial dilution method; type: cell-based
Source text: as §1

[8] = in vivo; cited from earlier work
[9] = 0.2N HCl-80% CH3 CN-H2 O, 30 minutes
[10] = 0.15 mg/kg/day, i.p., once per day for 9 days, 60 days observation
[11] = 0.3 mg/kg/day, i.p., once per day for 9 days, 60 days observation
[12] = 0.6 mg/kg/day, i.p., once per day for 9 days, 60 days observation
[13] = 1.25 mg/kg/day, i.p., once per day for 9 days, 60 days observation
[14] = 2.5 mg/kg/day, i.p., once per day for 9 days, 60 days observation
[15] = 5 mg/kg/day, i.p., once per day for 9 days, 60 days observation

SMILES: COc1cccc2c1C(=O)c1c(O)c3c(c(O)c1C2=O)C[C@@](O)(C(C)=O)C[C@@H]3O[C@@H]1O[C@@H](C)[C@@H](O)[C@@H](O)[C@H]1F [Compound of formula (k), 7-O-(2,6-dideoxy-2-fluoro-α-L-talopyranosyl)daunomycinone]
- antitumor activity (experimental tumors [1]): excellent antitumor activities
- toxicity (experimental tumors [1]): low toxicities
- acid hydrolysis, TLC result [2, 9]: presence of the spot of FTDM only
- acid hydrolysis, TLC result ([2]; 0.2N HCl-80% CH3 CN-H2 O, further 3 hours): the spot of FTDM only
- acid hydrolysis ([2]; 1N HCl in acetonitrile-water (4:1), 8 hours): remains substantially as it is, without being decomposed
- acid hydrolysis, TLC result ([2]; 1N HCl overall, 8 hours): a spot of a trace amount of daumonycinone appeared, but most of FTDM was remaining at it was
- stability of glycoside linkage against hydrolysis by acid [2]: high stability against hydrolysis by acid
- antibacterial activity (some species of bacteria): high antibacterial activities
- sign of toxicity (Leukemia L-1210 cells): no sign of toxicity
- % Increase in life-span (T/C) (Leukemia L-1210 cells; ip, 0.15 mg/kg): 105%
- % Increase in life-span (T/C) (Leukemia L-1210 cells; ip, 0.3 mg/kg): 105%
- % Increase in life-span (T/C) (Leukemia L-1210 cells; ip, 0.6 mg/kg): 125%
- % Increase in life-span (T/C) (Leukemia L-1210 cells; ip, 1.25 mg/kg): 171%
- % Increase in life-span (T/C) (Leukemia L-1210 cells; ip, 2.5 mg/kg): 217%
- % Increase in life-span (T/C) (Leukemia L-1210 cells; ip, 5 mg/kg): 184%

SMILES: COc1cccc2c1C(=O)c1c(O)c3c(c(O)c1C2=O)C[C@@](O)(C(C)=O)C[C@@H]3O[C@@H]1O[C@@H](C)[C@H](OC(C)=O)[C@@H](OC(C)=O)[C@H]1I [Compound NSC 331,962, 7-O-(3,4-di-O-acetyl-2,6-dideoxy-2-iodo-α-L-manno-hexopyranosyl)daunomycinone]
- increase (in %) of survival days (T/C, %) (Leukemia P 388; 50 mg/kg): 247%
- increase (in %) of survival days (T/C, %) (Leukemia L-1210): 196%

SMILES: CO[C@@H]1O[C@@H](C)[C@@H](O)[C@@H](O)[C@H]1F [Compound of formula (h), methyl 2,6-dideoxy-2-fluoro-α-L-talopyranoside]
- MIC [3]: 100 µg/mL
- MIC [4]: 100 µg/mL
- antibacterial activity compared with phenol (some species of bacteria): higher antibacterial activity against some species of bacteria than that of phenol

SMILES: COc1cccc2c1C(=O)c1c(O)c3c(c(O)c1C2=O)C[C@@](O)(C(=O)CO)C[C@@H]3O[C@H]1C[C@H](N)[C@H](O)[C@H](C)O1 [Adriamycin, reference compound]
- cardiac toxicity [5]: cardiac toxicity
- decrease in the number of leukocytes [5]: decrease in the number of leukocytes
- falling-off of the hair [5]: falling-off of the hair
- antitumor activity (experimental tumors [6]): fairly high antitumor activity against various kinds of tumors
- % Increase in life-span (T/C) (Leukemia L-1210 cells; [10]): 123%
- % Increase in life-span (T/C) (Leukemia L-1210 cells; [11]): 136%
- % Increase in life-span (T/C) (Leukemia L-1210 cells; [12]): 142%
- % Increase in life-span (T/C) (Leukemia L-1210 cells; [13]): 222%
- % Increase in life-span (T/C) (Leukemia L-1210 cells; [14]): 228%
- % Increase in life-span (T/C) (Leukemia L-1210 cells; [15]): 191%
- sign of toxicity (Leukemia L-1210 cells): appearance of toxicity

SMILES: COc1cccc2c1C(=O)c1c(O)c3c(c(O)c1C2=O)C[C@@](O)(C(C)=O)C[C@@H]3O[C@@H]1O[C@@H](C)[C@@H](OC(C)=O)[C@@H](OC(C)=O)[C@H]1I [Compound NSC 327,472, 7-O-(3,4-di-O-acetyl-2,6-dideoxy-2-iodo-α-L-talohexopyranosyl)daunomycinone]
- increase (%) of survival days (Leukemia P 388; 12.5 mg/kg to 25 mg/kg): 172%
- increase (%) of survival days (Leukemia P 388; 150 mg/kg): 162%

SMILES: COc1cccc2c1C(=O)c1c(O)c3c(c(O)c1C2=O)C[C@@](O)(C(=O)CO)C[C@@H]3O[C@@H]1O[C@@H](C)[C@@H](O)[C@@H](O)[C@H]1F [Compound of formula (l), 7-O-(2,6-dideoxy-2-fluoro-α-L-talopyranosyl)adriamycinone]
- antitumor activity (experimental tumors [1]): excellent antitumor activities
- toxicity (experimental tumors [1]): low toxicities
- stability of glycoside linkage against hydrolysis by acid [2]: high stability against hydrolysis by acid
- antibacterial activity (some species of bacteria): high antibacterial activities
- sign of toxicity (Leukemia L-1210 cells): no sign of toxicity
- % Increase in life-span (T/C) (Leukemia L-1210 cells; ip, 0.15 mg/kg): 127%
- % Increase in life-span (T/C) (Leukemia L-1210 cells; ip, 0.3 mg/kg): 182%
- % Increase in life-span (T/C) (Leukemia L-1210 cells; ip, 0.6 mg/kg): 185%
- % Increase in life-span (T/C) (Leukemia L-1210 cells; ip, 1.25 mg/kg): 275%
- % Increase in life-span (T/C) (Leukemia L-1210 cells; ip, 2.5 mg/kg): > 352%
- % Increase in life-span (T/C) (Leukemia L-1210 cells; ip, 5 mg/kg): > 740%

SMILES: C[C@@H]1OC(O)[C@H](F)[C@H](O)[C@@H]1O (stereo partly drawn) [Compound of formula (i), 2,6-dideoxy-2-fluoro-α,β-L-talopyranose]
- MIC [4]: 100 µg/mL
- MIC [7]: 100 µg/mL
- antibacterial activity (some species of bacteria): shows antibacterial activity
- antibacterial activity compared with phenol (some species of bacteria): higher antibacterial activity against some species of bacteria than that of phenol

SMILES: COc1cccc2c1C(=O)c1c(O)c3c(c(O)c1C2=O)C[C@@](O)(C(C)=O)C[C@@H]3O [daunomycinone]
- cardiac toxicity compared with daunomycin or adriamycin [8]: higher cardiac toxicity than the daunomycin or adriamycin itself

SMILES: COc1cccc2c1C(=O)c1c(O)c3c(c(O)c1C2=O)C[C@@](O)(C(=O)CO)C[C@@H]3O [adriamycinone]
- cardiac toxicity compared with daunomycin or adriamycin [8]: higher cardiac toxicity than the daunomycin or adriamycin itself

SMILES: COc1cccc2c1C(=O)c1c(O)c3c(c(O)c1C2=O)C[C@@](O)(C(C)=O)C[C@@H]3O[C@H]1C[C@H](N)[C@H](O)[C@H](C)O1 [Daunomycin, reference compound]
- acid hydrolysis ([2]; 0.2N HCl in acetonitrile-water (4:1), 30 minutes): completely decomposed
- acid hydrolysis, TLC result [2, 9]: disappearance of the spot of daunomycin
- antitumor activity (experimental tumors [6]): fairly high antitumor activity against various kinds of tumors
- % Increase in life-span (T/C) (Leukemia L-1210 cells; [10]): 132%
- % Increase in life-span (T/C) (Leukemia L-1210 cells; [11]): 112%
- % Increase in life-span (T/C) (Leukemia L-1210 cells; [12]): 145%
- % Increase in life-span (T/C) (Leukemia L-1210 cells; [13]): 158%
- % Increase in life-span (T/C) (Leukemia L-1210 cells; [14]): 171%
- % Increase in life-span (T/C) (Leukemia L-1210 cells; [15]): 138%

Reference: patent US5034517A, “Process for producing 2,6-dideoxy-2-fluoro-L-talopyranose” (priority 1986, dated 1991)
